In US20100317647A1 (priority 2009, published 2010):

These compounds were tested against human Cat S (Homo sapiens, UniProt P25774) (assay: Cathepsin enzyme inhibition assay (fluorogenic peptide substrate cleavage)). Conditions: human Cat S 1 nM; substrate Z-Val-Val-Arg-AMC 20 μM; pH 6.5; fluorescence over 20 minutes.
Assay type: biochemical
Method: Cathepsin Enzyme Inhibition Assay
Enzyme activity is measured by observing the increase in fluorescence intensity caused by cleavage of a peptide substrate containing a fluorophore whose emission is quenched in the intact peptide.
Assay buffer: 100 mM potassium phosphate pH 6.5, EDTA-Na 5 mM, Triton X-100 0.001%, DTT 5 mM. Enzymes (all at 1 nM): human and mouse Cathepsin S, Cat K, Cat B, Cat L. Substrate (20 μM): Z-Val-Val-Arg-AMC, except for Cat K which uses Z-Leu-Arg-AMC (both from Bachem).
AMC=7-Amino-4-Methyl-Coumarin.
DTT=dithiothreitol. Final volume: 100 μL.
Excitation 360 nm, Emission 465 nm.
Enzyme is added to the substance dilutions in 96-well microtitre plates and the reaction is started with substrate. Fluorescence emission is measured over 20 minutes, during which time a linear increase is observed in the absence of inhibitor. IC50 are calculated by standard methods. Inhibition of human Cat S, mouse Cat S, human Cat K, mouse Cat K, human Cat B, mouse Cat B, human Cat L and mouse Cat L have been measured separately. The results obtained for human Cat S are expressed in the following table.

Chain of human Cat S (P25774 115-331): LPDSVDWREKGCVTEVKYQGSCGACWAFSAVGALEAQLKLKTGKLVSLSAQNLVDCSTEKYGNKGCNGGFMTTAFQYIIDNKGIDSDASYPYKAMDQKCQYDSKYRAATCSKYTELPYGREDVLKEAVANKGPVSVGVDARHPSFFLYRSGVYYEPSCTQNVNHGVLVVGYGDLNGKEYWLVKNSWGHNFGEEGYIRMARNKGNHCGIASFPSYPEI

IC50 [nM] | SMILES
0.2 | Cn1nccc1-c1ccc(S(=O)(=O)[C@@H]2C[C@@H](C(=O)NC3(C#N)CC3)[C@H](C(=O)N3CC(F)(F)C3)C2)c(C(F)(F)F)c1 [Example 124, (1R,2R,4R)-2-(3,3-Difluoro-azetidine-1-carbonyl)-4-[4-(2-methyl-2H-pyrazol-3-yl)-2-trifluoromethyl-benzenesulfonyl]-cyclopentanecarboxylic acid (1-cyano-cyclopropyl)-amide]
50 | N#CC1(NC(=O)[C@@H]2C[C@H](S(=O)(=O)c3ccc(Cl)cn3)C[C@H]2C(=O)N2CCC(F)(F)C2)CC1 [Example 226, (1R,2R,4S)-4-(5-Chloro-pyridine-2-sulfonyl)-2-(3,3-difluoro-pyrrolidine-1-carbonyl)-cyclopentanecarboxylic acid (1-cyano-cyclopropyl)-amide]
6.77 | N#CC1(NC(=O)[C@@H]2C[C@@H](S(=O)(=O)c3ccccc3C(F)(F)F)C[C@H]2OC2CCS(=O)(=O)CC2)CC1 (racemic) [Example 219, (1R,2R,4R) and (1S,2S,4S)-2-[(tetrahydro-1,1-dioxo-2H-thiopyran-4-yl)oxy]-4-(2-trifluoromethyl-benzenesulfonyl)-cyclopentanecarboxylic acid (1-cyano-cyclopropyl)-amide]
0.2 | Cc1noc(C)c1-c1ccc(S(=O)(=O)[C@H]2C[C@@H](OC(C)C)[C@H](C(=O)NC3(C#N)CC3)C2)c(C(F)(F)F)c1 (racemic) [Example 141, (1R,2R,4R) and (1S,2S,4S)-4-[4-(3,5-Dimethyl-isoxazol-4-yl)-2-trifluoromethyl-benzenesulfonyl]-2-isopropoxy-cyclopentanecarboxylic acid (1-cyano-cyclopropyl)-amide]
1.93 | CO[C@@H]1C[C@H](S(=O)(=O)c2ccc(-n3cc(C)cn3)cc2Cl)C[C@H]1C(=O)NC1(C#N)CC1 (racemic) [Example 149, (1R,2R,4R) and (1S,2S,4S)-4-[2-Chloro-4-(4-methyl-pyrazol-1-yl)-benzenesulfonyl]-2-methoxy-cyclopentanecarboxylic acid (1-cyano-cyclopropyl)-amide]
0.227 | CCN1CCN(c2ccc(S(=O)(=O)[C@H]3C[C@@H](COc4ccc(F)cc4)[C@H](C(=O)NCC#N)C3)c(Cl)c2)CC1 [Example 147, (1R,2R,4S)-4-[2-Chloro-4-(4-ethyl-piperazin-1-yl)-benzenesulfonyl]-2-(4-fluoro-phenoxymethyl)-cyclopentanecarboxylic acid cyanomethyl-amide]
1.23 | N#CC1(NC(=O)[C@@H]2C[C@@H](S(=O)(=O)c3ccc(Br)cc3C(F)(F)F)C[C@H]2OC2CCOCC2)CC1 (racemic) [Example 169, (1R,2R,4R) and (1S,2S,4S)-4-(4-Bromo-2-trifluoromethyl-benzenesulfonyl)-2-(tetrahydro-pyran-4-yloxy)-cyclopentanecarboxylic acid (1-cyano-cyclopropyl)-amide]
0.165 | CC(C)(C)N1CCN(c2ccc(S(=O)(=O)[C@@H]3C[C@@H](C(=O)NC4(C#N)CC4)[C@H](C(=O)N4CC(F)(F)C4)C3)c(Cl)c2)CC1 [Example 160, (1R,2R,4R)-4-[4-(4-tert-Butyl-piperazin-1-yl)-2-chloro-benzenesulfonyl]-2-(3,3-difluoro-azetidine-1-carbonyl)-cyclopentanecarboxylic acid (1-cyano-cyclopropyl)-amide]
4 | CO[C@@H]1C[C@H](S(=O)(=O)c2ccc(-n3cccn3)cc2Cl)C[C@H]1C(=O)NC1(C#N)CC1 (racemic) [Example 59, (1R,2R,4R) and (1S,2S,4S)-4-(2-Chloro-4-pyrazol-1-yl-benzenesulfonyl)-2-methoxy-cyclopentanecarboxylic acid (1-cyano-cyclopropyl)-amide]
810 | N#CCNC(=O)[C@@H]1C[C@H](S(=O)(=O)c2ccccc2Cl)C[C@H]1COc1ccc(Cl)cc1 (single isomer, unassigned) [Example 69]
610 | N#CC1(NC(=O)[C@H]2CC[C@@H](S(=O)(=O)c3ccc(-n4cccn4)cc3Cl)C2)CC1 (single isomer, unassigned) [Example 101]
1.85 | N#CC1(NC(=O)[C@@H]2C[C@@H](S(=O)(=O)c3ccccc3C(F)(F)F)C[C@H]2OCc2ccc(Cl)cc2)CC1 (racemic) [Example 232, (1R,2R,4R) and (1S,2S,4S)-2-(4-Chloro-benzyloxy)-4-(2-trifluoromethyl-benzenesulfonyl)-cyclopentanecarboxylic acid (1-cyano-cyclopropyl)-amide]
0.4 | N#CCNC(=O)[C@@H]1C[C@@H](S(=O)(=O)c2cccc3ccccc23)C[C@H]1C(=O)N1CCOCC1 [Example 36, (1R,2R,4R)-2-(Morpholine-4-carbonyl)-4-(naphthalene-1-sulfonyl)-cyclopentanecarboxylic acid cyanomethyl-amide]
1.4 | N#CC1(NC(=O)[C@@H]2C[C@@H](S(=O)(=O)c3ccc(OCC(F)(F)F)cc3Cl)C[C@H]2C(=O)N2CC(F)(F)C2)CC1 [Example 134, (1R,2R,4R)-4-[2-Chloro-4-(2,2,2-trifluoro-ethoxy)-benzenesulfonyl]-2-(3,3-difluoro-azetidine-1-carbonyl)-cyclopentanecarboxylic acid (1-cyano-cyclopropyl)-amide]
1200 | COC[C@@H]1C[C@@H](S(=O)(=O)c2ccccc2Cl)C[C@H]1C(=O)NCC#N (single isomer, unassigned) [Example 104]
0.135 | Cc1cc(-c2ccc(S(=O)(=O)[C@@H]3C[C@@H](C(=O)NC4(C#N)CC4)[C@H](C(=O)N4CCC(F)(F)C4)C3)c(Cl)c2)ccn1 [Example 198, (1R,2R,4R)-4-[2-Chloro-4-(2-methyl-pyridin-4-yl)-benzenesulfonyl]-2-(3,3-difluoro-pyrrolidine-1-carbonyl)-cyclopentanecarboxylic acid (1-cyano-cyclopropyl)-amide]
1.6 | CNC(=O)Cn1cc(-c2ccc(S(=O)(=O)[C@H]3C[C@@H](OC)[C@H](C(=O)NC4(C#N)CC4)C3)c(C(F)(F)F)c2)cn1 (racemic) [Example 216, (1R,2R,4R) and (1S,2S,4S)-2-Methoxy-4-[4-(1-methylcarbamoylmethyl-1H-pyrazol-4-yl)-2-trifluoromethyl-benzenesulfonyl]-cyclopentanecarboxylic acid (1-cyano-cyclopropyl)-amide]
0.48 | N#CC1(NC(=O)[C@@H]2C[C@@H](S(=O)(=O)c3ccccc3C(F)(F)F)C[C@H]2OC2CCOCC2)CC1 (racemic) [Example 175, (1R,2R,4R) and (1S,2S,4S)-2-(Tetrahydro-pyran-4-yloxy)-4-(2-trifluoromethyl-benzenesulfonyl)-cyclopentanecarboxylic acid (1-cyano-cyclopropyl)-amide]
20 | CO[C@@H]1C[C@H](S(=O)(=O)c2ccc(Cl)cc2Cl)C[C@H]1C(=O)NCC#N (racemic) [Example 51, (1R,2R,4R) and (1S,2S,4S)-4-(2,4-Dichloro-benzenesulfonyl)-2-methoxy-cyclopentanecarboxylic acid cyanomethyl-amide]
0.4 | CC(C)(C)N1CCN(c2ccc(S(=O)(=O)[C@@H]3C[C@@H](C(=O)NC4(C#N)CC4)[C@H](C(=O)N4CC(F)(F)C4)C3)c(C(F)(F)F)c2)CC1 [Example 130, (1R,2R,4R)-4-[4-(4-tert-Butyl-piperazin-1-yl)-2-trifluoromethyl-benzenesulfonyl]-2-(3,3-difluoro-azetidine-1-carbonyl)-cyclopentanecarboxylic acid (1-cyano-cyclopropyl)-amide]
1 | CO[C@@H]1C[C@H](S(=O)(=O)c2ccc(-c3cc[nH]n3)cc2C(F)(F)F)C[C@H]1C(=O)NC1(C#N)CC1 (racemic) [Example 73, (1R,2R,4R) and (1S,2S,4S)-2-Methoxy-4-[4-(1H-pyrazol-3-yl)-2-trifluoromethyl-benzenesulfonyl]-cyclopentanecarboxylic acid (1-cyano-cyclopropyl)-amide]
0.4 | CO[C@@H]1C[C@H](S(=O)(=O)c2ccc(-c3cncc(Cl)c3)cc2C(F)(F)F)C[C@H]1C(=O)NC1(C#N)CC1 (racemic) [Example 90, (1R,2R,4R) and (1S,2S,4S)-4-[4-(5-Chloro-pyridin-3-yl)-2-trifluoromethyl-benzenesulfonyl]-2-methoxy-cyclopentanecarboxylic acid (1-cyano-cyclopropyl)-amide]
1.45 | N#CC1(NC(=O)[C@@H]2C[C@@H](S(=O)(=O)c3ccccc3Cl)C[C@H]2Oc2ccc(Cl)cc2)CC1 (racemic) [Example 243, (1R,2R,4R) and (1S,2S,4S)-4-(2-Chloro-benzenesulfonyl)-2-(4-chloro-phenoxy)-cyclopentanecarboxylic acid (1-cyano-cyclopropyl)-amide]
0.6 | N#CCNC(=O)[C@@H]1C[C@@H](S(=O)(=O)c2ccccc2)C[C@H]1C(=O)N1CCOCC1 [Example 1, (1R,2R,4R)-4-Benzenesulfonyl-2-(morpholine-4-carbonyl)-cyclopentanecarboxylic acid cyanomethyl-amide]

SMILES | IC50 [nM]
N#CC1(NC(=O)[C@@H]2C[C@@H](S(=O)(=O)c3ccccc3C(F)(F)F)C[C@H]2OC2CCC2)CC1 (racemic) [Example 220, (1R,2R,4R) and (1S,2S,4S)-2-Cyclobutoxy-4-(2-trifluoromethyl-benzenesulfonyl)-cyclopentanecarboxylic acid (1-cyano-cyclopropyl)-amide] | 3.6
